Laboratory results as given in US20090246293A1 (priority 2008, published 2009).
Like-named read-outs stand apart in the source and are kept apart here.

Tests used:
[1] = system: Phytophthora infestans; assay type: in vivo; details: for % Disease: potatoes, field, six sprays, rated 8 days after sixth application; for Disease control compared to Dithane alone (in words): combined with Dithane, potato field trial
[2] = system: Plasmopara viticola (PLASVI); assay type: in vivo; details: for Reduction in percent disease: aldehyde derivative 100 ppm with mancozeb
[3] = system: Pseudoperonospora cubensis (PSPECU); details: in vivo
[4] = system: Pseudoperonospora cubensis; test: Drop-band treatment of cucumber leaves, then spray inoculation with zoospores (Examples 1-3); assay type: in vivo
Description: The following examples were carried out on greenhouse and growth chamber experiments on cucumber plants. The cucumber plants were grown from seed in soil-free medium mix (Metro-Mix 360®) and maintained in a glasshouse with supplementary light sources to provide a 16 hour photoperiod at 24-29° C. until the plants had produced 1-2 true leaves. Plants were then trimmed to 1 true leaf, approximately 8 cm across by removing any additional leaves.
Referring below to Table 1, Dithane M45 and Dithane OS are standard commercial formulations. Isovaleraldehyde loaded onto PergoPak was prepared using the following procedure: a mixture of 1.35 g of PergoPak M (polyurea), 0.15 g of isovaleraldehyde and 8 mL of ether was stirred at room temperature for 10 min. The mixture was then concentrated by rotatory evaporation at room temperature under a slight vacuum to provide a solid that was air dried for an hour at room temperature and then bottled. All treatments were prepared by adding the appropriate amount of each treatment to distilled water to give the desired concentration of active ingredient. Dithane® M45 suspensions were initially prepared via serial dilution. Mancozeb/isovaleraldehyde solutions were prepared by adding a prepared isovaleraldehyde solution to a prepared mancozeb suspension. All solutions were vortexed and sonicated prior to treatment application to ensure that they were homogenous.
A sporangial suspension of Pseudoperonospora cubensis was made by collecting leaves with freshly sporulating lesions and washing them in distilled water, which was made up of equal volumes of chilled (4° C.) and tap distilled water (21° C.). The suspension was then left on the lab bench for 2 hours to allow the release of zoospores from the sporangia. After 2 hours the suspension was filtered through filter paper (“Whatman”, 12.5 cm, grade 113V) to remove any remaining sporangia and mycelial fragments. The zoospore concentration was determined and then adjusted to the desired concentration with distilled water.
For each example described below, an area 5 cm wide by 1 cm deep was initially marked on each cucumber leaf by placing a mark in each corner of the area. This was repeated on four separate plants to give four replicates for each treatment. Ten 15 microlitre drops were then applied to each leaf in two 5 drop bands (1 cm between each drop) and allowed to dry overnight. Subsequently a zoospore suspension of Pseudoperonospora cubensis (30,000 zoospores/mL) was sprayed with a hand-atomiser to the entire leaf until run-off. Plants were placed in a dew room (22° C. and 99% RH) for 24 hours then maintained in a growth room with supplementary light sources to provide a 14 hour photoperiod at 18° C. and 70% RH until disease assessment.
Assessment of the effectiveness of the treatment was done by visual infection within the banded area. The banded area was evaluated on a percentage scale (with 0% representing no infection and 100% representing infection of the entire area) after 5-7 days.

[5] = system: Phytophthora infestans (PHYTIN); assay type: in vivo; details: for effect of Formulation I on the effectiveness of fungicides, PHYTIN: Table 20
[6] = system: Pseudoperonospora cubensis (PSPECU); test: Droplet application on cucumber leaf, growth chamber (Examples 5a-d); assay type: in vivo
Description: Examples 5a through 5d were conducted in growth chambers on cucumber plants. Cucumbers (Cucumis sativus cv Bush Pickle Hybrid #901261) were grown from seed in 5 cm by 5 cm pots containing MetroMix™ growth medium (Scotts, Marysville, Ohio) and maintained in a glasshouse with supplementary light sources to provide a 14 hour photoperiod at 24-29° C. until the plants were in the 2-3 true leaf stage of growth and the oldest leaf was fully expanded.
For examples 5a through 5d, described below, samples of mancozeb formulated as Dithane DG NT were dissolved in water to form a ½×dilution series. Mancozeb rates were 400, 200, 100 and 50 ppm. Samples of various aldehydes, amino acids, carboxylic acids, amines and alcohols were dissolved in acetone and then mixed with aqueous solutions of mancozeb. Attractant rates in the dilute solutions were 100, 200, 500 or 1000 ppm, depending on the experiment.
Mixtures of attractant or attractant derivative plus mancozeb or mancozeb alone were applied to cucumber as a row of 5 or 7.5 ul droplets using a multi-channel pipetting device. Five droplets spaced 1 cm apart were placed along the mid-rib of the expanded cucumber leaf with the first droplet being positioned at least 1-cm from the leaf apex. Each treatment was replicated three or four times, depending on the experiment. Two to three hours after applying the treatments when droplets had dried, plants were inoculated with a suspension of sporangia of a Pseudoperonospora cubensis (PSPECU) and incubated as described in the methods for sprayed tests. When symptoms were well developed in untreated check plants, the experiment was assessed visually using a template 2 cm wide and 7 cm long with the long axis centered on the mid-rib of the treated leaf.
Reduction in percent disease was calculated by subtracting percent disease on plants receiving a mixture of mancozeb plus the specified test substance from percent disease on plants receiving mancozeb alone. The results for examples 5a-5d are shown below in Tables 7-10; the reduction in percent disease was indicated as follows: […]

[7] = assay type: in vivo; details: mancozeb:fluazinam 1:1, mancozeb:dimethomorph 2:1, Formul. I/II at 100 ppm, untreated check 95%
[8] = Dithane 600 g ai/ha plus 300 ppm compound
[9] = fungicide with Formulation I at 100 ppm
[10] = substance alone 500 ppm, untreated check 95
[11] = fungicide with Formulation I at 100 ppm, Table 18
[12] = fungicide with Formulation I at 100 ppm, Table 19

CCCC=NNC(=O)Nc1ccccc1 [Compound A]
% Disease ([1]; 300 ppm compound alone): 98%
% Disease [1, 8]: 20%
Disease control compared to Dithane alone (in words) [1]: significantly improve disease control
Reduction in percent disease ([2]; PLASVI, Table 13): xx (21-35% reduction in percent disease)
Reduction in percent disease [3]: xx (key: x: 0-20% reduction in percent disease; xx: 21-35% reduction in percent disease; xxx: 36-50% reduction in percent disease; xxxx: >50% reduction in percent disease)

CCC(C)(NC(=O)c1cc(Cl)c(C)c(Cl)c1)C(=O)CCl (stereo not drawn) [Zoxamide, zoxamide]
Percent infection of Pseudoperonospora cubensis on cucumbers ([4]; zoxamide 1 ppm alone, 7 days after application): 28%
Percent infection of Pseudoperonospora cubensis on cucumbers ([4]; zoxamide 5 ppm alone, 7 days after application): 16%
Percent infection of Pseudoperonospora cubensis on cucumbers ([4]; zoxamide 25 ppm alone, 7 days after application): 16%
effect of Formulation I on the effectiveness of fungicides, PHYTIN [5, 9]: xx (21-35% reduction in percent disease)
effect of Formulation I on the effectiveness of fungicides, PSPECU [3]: x (key: x: 0-20% reduction in percent disease; xx: 21-35% reduction in percent disease; xxx: 36-50% reduction in percent disease; xxxx: >50% reduction in percent disease)

N#Cc1c(Cl)c(Cl)c(Cl)c(C#N)c1Cl [Chlorothalonil, chlorothalonil]
Percent infection of Pseudoperonospora cubensis on cucumbers ([4]; chlorothalonil 5 ppm alone, 7 days after application): 24%
Percent infection of Pseudoperonospora cubensis on cucumbers ([4]; chlorothalonil 20 ppm alone, 7 days after application): 9%
Percent infection of Pseudoperonospora cubensis on cucumbers ([4]; chlorothalonil 100 ppm alone, 7 days after application): 0%
Reduction in percent disease, Formul. I ([2]; PLASVI, fungicide with Formulation I at 100 ppm of attractant derivative, Table 22): x (0-20% reduction in percent disease)
Reduction in percent disease, Formul. I ([5]; PHYTIN, fungicide with Formulation I at 100 ppm of attractant derivative, Table 22): x (0-20% reduction in percent disease)
Reduction in percent disease, Formul. I [3]: x (key: x: 0-20% reduction in percent disease; xx: 21-35% reduction in percent disease; xxx: 36-50% reduction in percent disease; xxxx: >50% reduction in percent disease)

condensation product of urea and isovalderaldehyde [Compound B]
% Disease ([1]; 300 ppm compound alone): 98%
% Disease [1, 8]: 9%
Disease control compared to Dithane alone (in words) [1]: significantly improve disease control
Reduction in percent disease ([2]; PLASVI, Table 13): xx (21-35% reduction in percent disease)
Reduction in percent disease ([2]; PLASVI, Table 15): xx (21-35% reduction in percent disease)
Reduction in percent disease [3]: x (key: x: 0-20% reduction in percent disease; xx: 21-35% reduction in percent disease; xxx: 36-50% reduction in percent disease; xxxx: >50% reduction in percent disease)

CC(C)CC=O [Isovaleraldehyde, isovaleraldehyde]
Percent infection of Pseudoperonospora cubensis on cucumbers ([4]; isovaleraldehyde 50 ppm (sorbed to PergoPak M) alone, 5 days after application): 41%
Percent infection of Pseudoperonospora cubensis on cucumbers ([4]; isovaleraldehyde 100 ppm (sorbed to PergoPak M) alone, 5 days after application): 34%
Percent infection of Pseudoperonospora cubensis on cucumbers ([4]; isovaleraldehyde 100 ppm alone, 7 days after application): 41%
Percent infection of Pseudoperonospora cubensis on cucumbers ([4]; isovaleraldehyde 500 ppm (sorbed to PergoPak M) alone, 5 days after application): 44%
Percent infection of Pseudoperonospora cubensis on cucumbers ([4]; pure isovaleraldehyde 50 ppm alone, 6 days after application): 51%
Percent infection of Pseudoperonospora cubensis on cucumbers ([4]; pure isovaleraldehyde 100 ppm alone, 6 days after application): 44%
Reduction in % Disease ([6]; substance 100 ppm with mancozeb 200 ppm vs mancozeb alone, Table 9): xx (21-35% reduction in percent disease)
Reduction in % Disease ([6]; substance 200 ppm with mancozeb 50 ppm vs mancozeb alone, cucumber): xxxx (>50% reduction in percent disease)
Reduction in % Disease ([6]; substance 500 ppm with mancozeb 200 ppm vs mancozeb alone, Table 8): xx (21-35% reduction in percent disease)
Reduction in % Disease ([6]; substance 1000 ppm with mancozeb 50 ppm vs mancozeb alone, cucumber): xxx (36-50% reduction in percent disease)
% disease at 100 ppm of substance alone ([6]; substance alone 100 ppm, untreated check 92%, Table 9): 86%
% disease at 500 ppm of substance alone ([6]; substance alone 500 ppm, untreated check 91%): 93%
% disease at 1000 ppm of substance alone ([6]; substance alone 1000 ppm, untreated check 100%): 100%
Reduction in percent disease PLASVI ([2]; substance 500 ppm with mancozeb 6.25 ppm (Dithane DGNT), foliar spray, inoculated 2 to 3 hours after treatment): xxx (36-50% reduction in percent disease)
% disease at 500 ppm of substance alone PLASVI [2, 10]: 93%
Reduction in percent disease PHYTIN ([5]; substance 500 ppm with mancozeb 25 ppm (Dithane DGNT), foliar spray, inoculated 2 to 3 hours after treatment): xxx (36-50% reduction in percent disease)
% disease at 500 ppm of substance alone PHYTIN [5, 10]: 77%

mancozeb
Percent infection of Pseudoperonospora cubensis on cucumbers ([4]; mancozeb 10 ppm (Dithane 60 OS) alone, 5 days after application): 31%
Percent infection of Pseudoperonospora cubensis on cucumbers ([4]; mancozeb 10 ppm (Dithane M45) alone, 6 days after application): 31%
Percent infection of Pseudoperonospora cubensis on cucumbers ([4]; mancozeb 10 ppm (Dithane M45) alone, 7 days after application): 30%
Percent infection of Pseudoperonospora cubensis on cucumbers ([4]; mancozeb 50 ppm (Dithane 60 OS) alone, 5 days after application): 25%
Percent infection of Pseudoperonospora cubensis on cucumbers ([4]; mancozeb 50 ppm (Dithane M45) alone, 6 days after application): 21%
Percent infection of Pseudoperonospora cubensis on cucumbers ([4]; mancozeb 50 ppm (Dithane M45) alone, 7 days after application): 11%
Percent infection of Pseudoperonospora cubensis on cucumbers ([4]; mancozeb 100 ppm (Dithane 60 OS) alone, 5 days after application): 10%
Percent infection of Pseudoperonospora cubensis on cucumbers ([4]; mancozeb 100 ppm (Dithane M45) alone, 6 days after application): 16%
Percent infection of Pseudoperonospora cubensis on cucumbers ([4]; mancozeb 100 ppm (Dithane M45) alone, 7 days after application): 6%
Reduction in percent disease PLASVI [2, 11]: xx (21-35% reduction in percent disease)
Reduction in percent disease PLASVI [2, 12]: xx (21-35% reduction in percent disease)
effect of Formulation I on the effectiveness of fungicides, PLASVI ([2]; fungicide with Formulation I at 100 ppm, Table 20): xx (21-35% reduction in percent disease)
Reduction in percent disease PHYTIN [5, 11]: x (0-20% reduction in percent disease)
Reduction in percent disease PHYTIN [5, 12]: xxx (36-50% reduction in percent disease)
effect of Formulation I on the effectiveness of fungicides, PHYTIN [5, 9]: xx (21-35% reduction in percent disease)
effect of Formulation I on the effectiveness of fungicides, PSPECU [3]: xx (key: x: 0-20% reduction in percent disease; xx: 21-35% reduction in percent disease; xxx: 36-50% reduction in percent disease; xxxx: >50% reduction in percent disease)
Percent disease ([7]; 1.6 ppm mancozeb): 71%
Percent disease ([7]; 3.1 ppm mancozeb): 79%
